According to patent US20090291156A1, “HERBAL COMPOSITION FOR SKIN CARE” (SAGITTARIUS LIFE SCIENCE CORP., priority 2008, published 2009):

Legend:
[1] = system: dermal fibroblast collagen and glycosaminoglycan synthesis; assay: Stimulation of dermal fibroblast collagen and glycosaminoglycan synthesis (Sirius red, Safranin O, Alcian blue staining); assay type: cell-based, Human
Method: Human foreskin dermal fibroblasts were cultured in DMEM+10% FCS+Penicillin G (100 unit/ml)/Streptomycin (100 ug/ml)+Glutamine (2 mM)+Sodium pyruvate (0.1 mM) (C-medium) under humidifying atmosphere containing 5% CO2 at 37° C.
5×10^4 cells were plated into each well of 48 multiwell plate. Three to four days later, the cells reached confluency. The medium was replaced with fresh C-medium with or without H2O2 containing 25 ug/ml vitamin C with herbal preparations, Genistein or vitamin A. After treatment for 7 days, the cells were fixed with 10% formalin in saline, and stained with Sirius red, Safranin O or Alcian blue (at pH2.5 for hyaluronic acid staining). The relative amount of extracellular matrix deposition was estimated by visual comparison of the intensity and area of the respective stains.
At the end of treatments, the cells were washed twice with PBS, and were irradiated by UV (365 nm) at 20 mJ/cm^2 in PBS. Fresh serum free medium was replaced, and the cells were fixed and stained 24 hours later.

[2] = Radical scavenging activity examined by DPPH; assay type: biochemical; details: 0.1 mM DPPH, 30 minutes
Method: Herbal preparations with the designated final concentrations was mixed with 0.1 mM DPPH (2,2-diphenyl-1-picrylhydrazyl), incubated at room temperature in dark for 30 minutes. Absorbance at 517 nm was read by Varian Cary 50 Tablet UV-Visible Spectrophotometer. Vitamin C and vitamin E served as positive controls.

## O=c1c(-c2ccc(O)cc2)coc2cc(O)cc(O)c12 [Genistein]
[1]; 10 μM, in the presence of 0.1 mM H2O2
  effect on collagen and glycosaminoglycan synthesis (words, Table 3): did not show significant effect
[1]; 10 uM, without H2O2
  effect on collagen and glycosaminoglycan synthesis (words, Table 2): did not show significant effect

## O=C1O[C@H]([C@@H](O)CO)C(O)=C1O [Vit. C, Vitamin C]
[2]; 0.001 mM
  % DPPH radical scavenging: 75.0%
[2]; 0.01 mM
  % DPPH radical scavenging: 99.3%

## Vitamin A
[1]; 1 μM, in the presence of 0.05 mM H2O2
  activity on collagen and glycosaminoglycan synthesis (words, FIG. 2): did not show significant activity
[1]; 1 μM, without H2O2
  activity on collagen and glycosaminoglycan synthesis compared to control (words, FIG. 1): did not show significant activity
[1]; 10 μM, UV 365 nm at 20 mJ/cm^2
  effect on collagen and glycosaminoglycan synthesis (words, Table 5): did not show significant effect
[1]; 10 μM, no UV
  effect on collagen and glycosaminoglycan synthesis (words, Table 4): did not show significant effect

## vitamin E [Vit. E]
[2]; 0.01 mM
  % DPPH radical scavenging: 70.1%
[2]; 0.1 mM
  % DPPH radical scavenging: 86.8%
